Assay results taken from patent publication US9662377B2, “Therapeutic composition for treatment of glioblastoma” (REGENTS OF THE UNIVERSITY OF MINNESOTA, priority 2010, dated 2017).

Test system: PBMCs from CMV sera-positive donors
Assay: CMV assay (pp65-dependent IFNγ production)
Format: cell-based, human
Procedure: 5×10^5 HLA-A2^+ iDCs were pulsed with 100 μg of tumor lysates derived in 5% or 20% O2+/−10 μg of pp65 HLA-A2-restricted CMV antigen (NLVPMVATV) (SEQ ID NO: 15) and matured as described in the methods section. Following maturation, DCs were washed 3 times, and 5×10^5 PBMCs from CMV sera-positive donors were added to DCs. CMV sera-negative PBMCs were used as a negative control. Cells were incubated for 48 h, and supernatant was analyzed by cytometric bead array (BD Biosciences) for IFNγ. Cells were cultured for an additional 24 h, stained with anti-CD8, pp65 pentamer (ProImmune), and intracellularly stained for IFNγ production.
The inventors established an assay to determine if TLs altered DC-mediated CD8 T cell priming from a defined antigen not present in the TLs. To accomplish this, TLs were mixed with pp65 peptide, a specific marker antigen with well-defined CD8 T cell responses. […] Soluble IFNγ in the tissue culture supernatant was quantified as a measure of CD8 T cell activation. There was a background of […] of IFNγ detected in the supernatant when TLs were pulsed in the absence of pp65, possibly due to activation of T cells or natural killer (NK) cells irrespective of pp65 (FIG. 8B).

NLVPMVATV [pp65]
Response of sera-negative donor PBMCs (CMV sera-negative donor PBMCs): did not respond
IFNγ level above background (sera-positive donor PBMCs primed with pp65 alone (no TLs)): 2-4 fold
